Source: patent publication US12428455B2, “Dominant negative CEBPB and CEBPD proteins and methods of use for decreasing viability of neoplastic cells” (The Trustees of Columbia University in the City of New York, priority 2018, dated 2025)
No end group written: not given here.

Assays:
Type in all cases: cell-based
[1] = test system: BCL2, MCL1 and survivin proteins; experiment: Western immunoblotting for pro-survival proteins; settings: 20 μM, 3 days; T98G, HCT116, MDA-MB-231 and MCF7 cell lines
Description: T98G, HCT116, MDA-MB-231, and MCF7 cell lines were exposed to 0 or 20 μM CP-dn-CEBPB or CP-dn-CEBPD for 3 days and then assessed by Western immunoblotting for levels of BCL2, MCL1 and survivin proteins with actin as loading control (FIG. 34A). Remaining panels show amounts of surviving (FIG. 34B), BCL2 (FIG. 34C) and MCL1 (FIG. 34D) were quantified relative to actin in multiple experiments.

BMF transcripts = experiment: qPCR for BMF transcripts; settings: 20 μM, 3 days; T98G, MDA-MB-231, MCF7, A375 and HCT116 cells
Description: T98G, MDA-MB-231, MCF7, A375, and HCT116 cells were treated with or without 20 μM CP-dn-CEBPB or CP-dn-CEBPD for 3 days and then assessed by qPCR for relative levels of BMF transcripts (FIG. 35A, T98G; FIG. 35B, MDA-MB-231; FIG. 35C, MCF7; FIG. 35D, A375; FIG. 35E, HCT116).

MDA-MB 231 cells = experiment: Combination with chloroquine, cell number, MDA-MB 231; settings: 5 μM or 10 μM chloroquine and 3 μM or 10 μM peptide, 6 days
Description: Replicate cultures of T98G, MDA-MB 231, and HCT116 cells were treated with 5 μM or 10 μM chloroquine and 3 μM or 10 μM CP-dn-CEBPB and CP-dn-CEBPD peptides, maintained for 6 days, and then assessed for cell number. The bar graphs of FIGS. 29A (T98G, CP-dn-CEBPB), 29C (T98G, CP-dn-CEBPBD, 29E (MDA-MB-231, CP-dn-CEBPBD), 29G (MDA-MB-231, CP-dn-CEBPD), 29I (HCT116, CP-dn-CEBPBB), and 26K (HCT116, CP-dn-CEBPBD) show relative cell numbers for each condition as compared to untreated controls. The line graphs of FIGS. 26B (T98G, CP-dn-CEBPB), 26D (T98G, CP-dn-CEBPBD), 26F (MDA-MB-231, CP-dn-CEBPB), 26H (MDA-MB-231, CP-dn-CEBPD), 26J (HCT116, CP-dn-CEBPB), and 26L (HCT116 CP-dn-CEBPBD) show the response as normalized in each case so that 100 represents the relative number of surviving cells that received the indicated level of chloroquine, but no peptide treatment. The results ranged from near-additive (HCT116 cells, CI=0.92±0.08 for CP-dn-CEBPB and 0.87±0.07 for CP-dn-CEBPD) to apparent synergy (T98G, CI=0.56±0.06 for CP-dn-CEBPB and 0.75±0.03 for CP-dn-CEBPD; MDA-MB-261, CI=0.59±0.11 for CP-dn-CEBPB and 0.47±0.05 for CP-dn-CEBPD).

A549 lung cancer cells = experiment: Cell number after peptide treatment, A549; settings: 6 days, 0 μM to 50 μM; stock without BSA
Description: Replicate cultures of MDA-MB-468 breast cancer cells, A549 lung cancer cells and 293T transformed embryonic kidney cells were exposed to CP-DN-CEBPB or CP-DN-CEBPD, for 6 days at doses of 0 μM to 50 μM. […] Stock solutions of the peptides were prepared in buffer without added bovine serum albumin (BSA).

[2] = test system: Mgpp3 murine proneural glioma cells; experiment: Cell number after peptide treatment, Mgpp3; settings: 6 days, 0 μM to 50 μM; stock without BSA
Description: Replicate cultures were exposed to the peptides the for 6 days at the indicated concentrations. Stock solutions of the peptides were prepared in buffer without added bovine serum albumin (BSA).

[3] = test system: MDA-MB 231, HCT116, and A375 cells; experiment: Peptide treatment after doxorubicin pre-treatment, cell number; settings: for sensitivity of cells to peptide with or without doxorubicin pre-treatment: 100 nM doxorubicin 24 hours, then 1, 3, 10 or 20 μM peptide, 6 days; for effect on reversibly non-growing or slow-growing cancer cells: after pre-treatment with 100 nM doxorubicin for 24 hours
Description: Replicate cultures of MDA-MB 231, HCT116, and A375 cells were pretreated with 100 nM doxorubicin for 24 hours, and then treated with 1 μM, 3 μM, 10 μM, or 20 μM CP-dn-CEBPB and CP-dn-CEBPD peptides, maintained for 6 days, and then assessed for cell number. The bar graphs of FIGS. 31A (MDA-MB 231, CP-dn-CEBPB), 31C (MDA-MB 231, CP-dn-CEBPBD, 31E (HCT116, CP-dn-CEBPBD), 31G (HCT116, CP-dn-CEBPD), 31I (A375, CP-dn-CEBPBB), and 31K (A375, CP-dn-CEBPBD) show relative cell numbers for each condition as compared to untreated controls. The line graphs of FIGS. 31B (MDA-MB 231, CP-dn-CEBPB), 31D (MDA-MB 231, CP-dn-CEBPBD), 31F (HCT116, CP-dn-CEBPB), 31H (HCT116, CP-dn-CEBPD), 31J (A375, CP-dn-CEBPB), and 31L (A375, CP-dn-CEBPBD) show the response as normalized in each case so that 100 represents the relative number of surviving cells that received the indicated level of doxorubicin, but no peptide treatment.

human astrocytes = experiment: Morphology after peptide treatment, astrocytes; settings: 6 days, 0 μM or 50 μM; stock without BSA
Description: Replicate cultures of human astrocytes were exposed to CP-DN-CEBPB or CP-DN-CEBPD for 6 days at final concentrations of 0 μM or 50 μM. […] Stock solutions of the peptides were prepared in buffer without added bovine serum albumin (BSA).

IL6 = experiment: qPCR for IL6 mRNA; settings: 20 μM, 3 days; T98G, MDA-MB-231, MCF7, A375 and HCT116 cells
Description: T98G, MDA-MB-231, MCF7, A375, and HCT116 cells were treated with or without 20 μM CP-dn-CEBPB or CP-dn-CEBPD for 3 days and then assessed by qPCR for relative levels of IL6 (FIG. 32A, T98G; FIG. 32B, MDA-MB-231; FIG. 32C, MCF7; FIG. 32D, A375; FIG. 32E, HCT116) and IL8 mRNA (FIG. 32F, T98G; FIG. 32G, MDA-MB-231; FIG. 32H, MCF7; FIG. 32I, A375; FIG. 32J, HCT116).

Sequence	levels of BCL2, MCL1 and survivin proteins relative to actin [1]	relative levels of BMF transcripts (BMF transcripts)	CI with chloroquine (MDA-MB 231 cells)	number of A549 cells (A549 lung cancer cells)	growth and survival of Mgpp3 cells [2]	sensitivity of cells to peptide with or without doxorubicin pre-treatment [3]	effect on reversibly non-growing or slow-growing cancer cells [3]	morphology of human astrocytes (human astrocytes)	relative levels of IL6 mRNA (IL6)
RQIKIWFQNRRMKWKKLVELSAENEKLHQRVEQLTRDLAGLRQFFK [CP-DN-CEBPD]	surpress expression of pro-survival proteins	upregulate pro-apoptotic BMF	0.47±0.05	dose-dependent decrease in the number	decrease in growth and survival	retain similar sensitivity	effective to treat reversibly non-growing or slow-growing cancer cells	did not affect the morphology	suppress expression
RQIKIWFQNRRMKWKKLETQHKVLELTAENERLQKKVEQLSRELSTLRNLFKQL [CP-DN-CEBPB]	surpress expression of pro-survival proteins	upregulate pro-apoptotic BMF	0.59±0.11	dose-dependent decrease in the number	decrease in growth and survival	retain similar sensitivity	effective to treat reversibly non-growing or slow-growing cancer cells	did not affect the morphology	suppress expression
